# In the supplement of paper PMC10307832:
# Legend:
# Assay in all cases: relative viability (nuclei count vs DMSO), 5 days (fraction); higher = more cells survive
# Bemcentinib + Olaparib = compound: Nc1nc(Nc2ccc3c(c2)CC[C@@H](N2CCCC2)CC3)nn1-c1cc2c(nn1)-c1ccccc1CCC2 [Bemcentinib] + O=C(c1cc(Cc2n[nH]c(=O)c3ccccc23)ccc1F)N1CCN(C(=O)C2CC2)CC1 [Olaparib] (partner 8 µM)
# Procedure, shortened: (§1)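 A single step with final 0.05% Triton X-100, 1% formaldehyde and 1 ug/ml Hoechst fixed the cells and stained nuclei 5 days after treatment. Lung cancer cell lines in 1536-well plates had been treated by pin tool the day after seeding with one drug alone or a fixed anchor-drug dose plus five library-drug doses (not always all listed) in √10 steps, and nuclei were counted on 4× images. Relative viability is the ratio of nuclei in treated wells to nuclei in vehicle wells, taken as the median of duplicate plates.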
# Bemcentinib + Dasatinib = compound: Nc1nc(Nc2ccc3c(c2)CC[C@@H](N2CCCC2)CC3)nn1-c1cc2c(nn1)-c1ccccc1CCC2 [Bemcentinib] + Cc1nc(Nc2ncc(C(=O)Nc3c(C)cccc3Cl)s2)cc(N2CCN(CCO)CC2)n1 [Dasatinib] (partner 0.075 µM)
# Procedure, shortened: as §1
# Axitinib + Alpelisib = compound: CNC(=O)c1ccccc1Sc1ccc2c(/C=C/c3ccccn3)n[nH]c2c1 [Axitinib] + Cc1nc(NC(=O)N2CCC[C@H]2C(N)=O)sc1-c1ccnc(C(C)(C)C(F)(F)F)c1 [Alpelisib] (partner 2 µM)
# Procedure, shortened: as §1
# Axitinib + Crizotinib = compound: CNC(=O)c1ccccc1Sc1ccc2c(/C=C/c3ccccn3)n[nH]c2c1 [Axitinib] + C[C@@H](Oc1cc(-c2cnn(C3CCNCC3)c2)cnc1N)c1c(Cl)ccc(F)c1Cl [Crizotinib] (partner 1 µM)
# Procedure, shortened: as §1
cell line,measurement,setting,value
NCI-H650,relative viability,Bemcentinib + Olaparib; first compound 0.04 µM,0.402
same,relative viability,Bemcentinib + Olaparib; first compound 0.1265 µM,0.424
same,relative viability,Bemcentinib + Olaparib; first compound 0.4 µM,0.42
same,relative viability,Bemcentinib + Olaparib; first compound 1.265 µM,0.424
same,relative viability,Bemcentinib + Olaparib; first compound 4 µM,0.36
same,relative viability,Bemcentinib + Dasatinib; first compound 0.04 µM,0.424
same,relative viability,Bemcentinib + Dasatinib; first compound 0.1265 µM,0.514
same,relative viability,Bemcentinib + Dasatinib; first compound 0.4 µM,0.474
same,relative viability,Bemcentinib + Dasatinib; first compound 1.265 µM,0.43
same,relative viability,Bemcentinib + Dasatinib; first compound 4 µM,0.4
same,relative viability,Axitinib + Alpelisib; first compound 0.005 µM,1.19
same,relative viability,Axitinib + Alpelisib; first compound 0.01581 µM,1.13
same,relative viability,Axitinib + Alpelisib; first compound 0.05 µM,0.868
same,relative viability,Axitinib + Alpelisib; first compound 0.1581 µM,1.02
same,relative viability,Axitinib + Alpelisib; first compound 0.5 µM,1.24
same,relative viability,Axitinib + Crizotinib; first compound 0.005 µM,0.859
same,relative viability,Axitinib + Crizotinib; first compound 0.01581 µM,0.745
same,relative viability,Axitinib + Crizotinib; first compound 0.05 µM,0.779
same,relative viability,Axitinib + Crizotinib; first compound 0.1581 µM,0.782
same,relative viability,Axitinib + Crizotinib; first compound 0.5 µM,0.903
